In PubChem BioAssay (NCI):
Values joined by “and” are separate entries in the source; they are usually repeats but may differ in a detail not shown here. Equal values may be shown once.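 Test compounds were applied to cells in 96-well plates for 48 hours at 5 doses. Abbreviation: GI50, concentration required for 50% inhibition of growth. The concentration for full growth arrest is given as TGI.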

Key:
Assay in all cases: DTP human tumour cell line panel, 48 h
CCRF-CEM leukemia = tested on: CCRF-CEM leukemia
HT29 colon = tested on: HT29 colon
IGROV1 ovarian = tested on: IGROV1 ovarian
MCF7 breast = tested on: MCF7 breast
NCI-H23 lung = tested on: NCI-H23 lung
OVCAR-3 ovarian = tested on: OVCAR-3 ovarian
OVCAR-5 ovarian = tested on: OVCAR-5 ovarian
SF-295 CNS = tested on: SF-295 CNS
SK-OV-3 ovarian = tested on: SK-OV-3 ovarian
SNB-19 CNS = tested on: SNB-19 CNS

| Compound | GI50 (CCRF-CEM leukemia) | TGI (CCRF-CEM leukemia) | GI50 (HT29 colon) | TGI (HT29 colon) | GI50 (IGROV1 ovarian) | TGI (IGROV1 ovarian) | GI50 (MCF7 breast) | TGI (MCF7 breast) | GI50 (NCI-H23 lung) | TGI (NCI-H23 lung) | GI50 (OVCAR-3 ovarian) | TGI (OVCAR-3 ovarian) | GI50 (OVCAR-5 ovarian) | TGI (OVCAR-5 ovarian) | GI50 (SF-295 CNS) | TGI (SF-295 CNS) | GI50 (SK-OV-3 ovarian) | TGI (SK-OV-3 ovarian) | GI50 (SNB-19 CNS) | TGI (SNB-19 CNS) |
| --- | --- | --- | --- | --- | --- | --- | --- | --- | --- | --- | --- | --- | --- | --- | --- | --- | --- | --- | --- | --- |
| CC(C)c1ccc(/C=N/N=C(N)N)cc1 | 4.33 µM | 47.5 µM | 3.19 µM | 9.65 µM | 11 µM | 25.8 µM | 2.76 µM | 10.1 µM | 3.96 µM | 19.7 µM | 3.5 µM | 11.6 µM | 12.9 µM | 30.2 µM | 8.13 µM | 22.4 µM | 3.24 µM | 13 µM | 4.77 µM | 17.4 µM |
| O=C1Nc2ccc(CN3CCOC3=O)cc2/C1=C/c1cc(CN2CCOCC2)c[nH]1 | 35.4 µM | > 100 µM | 34.6 µM | > 100 µM | 50.6 µM | > 100 µM | 24.1 µM | > 91.9 µM | 32.5 µM | > 100 µM | 47.6 µM | > 100 µM | > 100 µM | > 100 µM | 2.16 µM | > 100 µM | 98.9 µM | > 100 µM | 98.7 µM | > 100 µM |
| CN(N=O)C(=O)Nc1ccc(C(=O)O)cc1 |  | > 100 µM |  | > 100 µM |  | > 100 µM |  | > 100 µM |  | > 100 µM |  | > 100 µM |  | > 100 µM |  | > 100 µM |  | > 100 µM |  | > 100 µM |
| CC(=O)[O][Hg][CH2]C1(C)COC(C)([CH2][Hg][O]C(C)=O)CO1 (configuration not stated) | 0.306 µM | 1.72 µM | 6.67 µM | > 59.2 µM | 2.35 µM | 7.12 µM | 0.646 µM | 2.32 µM | 13.2 µM | 29.3 µM |  | 0.0232 µM | > 49.2 µM | > 63.8 µM | 3.62 µM | 8.44 µM | 17.5 µM | 31.8 µM | 16.1 µM | 30 µM |
| O=C(Nc1nc(-c2ccccc2)cs1)c1cc(O)c(O)c(O)c1 | 0.687 µM | 10.5 µM | 5.95 µM | 44.1 µM | 3.12 µM | 22.8 µM | 4.73 µM | > 100 µM | 4.36 µM | 51.5 µM | 3.39 µM | 13.6 µM | 18.2 µM | 47.7 µM | 6.97 µM | 55.1 µM | 12 µM | 41.9 µM | 2.61 µM | > 100 µM |
| CCOC(=O)Nc1ccc(C(=O)/C=C/c2ccccc2)cc1 | 36.9 µM | > 100 µM | 10.1 µM | > 100 µM | 19.3 µM | > 100 µM | 3.14 µM | 33.9 µM | 23.7 µM | 61.1 µM | 18.9 µM | 75.3 µM | 28.9 µM | 90.5 µM | 41.7 µM | > 100 µM | 26.3 µM | 77.5 µM | 26.4 µM | > 100 µM |
| Cc1cccc2c(N=Nc3ccccc3[N+](=O)[O-])c(O)[nH]c12 |  | > 43.6 µM |  | > 52.7 µM |  | > 50.5 µM |  | 24.3 µM |  | 23.4 µM |  | 30 µM |  | > 69.2 µM |  | 28.3 µM |  | 21.8 µM |  | > 74.1 µM |
| C[n+]1cc2cc3c(cc2c2ccccc21)OCO3 | 8.71 µM | > 100 µM | 3.77 µM | 23 µM | 0.982 µM | 58 µM | 2.61 µM | 17.3 µM | 2.37 µM | 13.6 µM | 3.13 µM | 19.4 µM | 16.5 µM | > 100 µM | 3.17 µM | 30.3 µM | 7.96 µM | > 100 µM | 1.64 µM |  |
| CC1=C/C(O)CC(=O)Cc2nc(co2)C(=O)N2CCC=C2C(=O)OC(C(C)C)C(C)/C=C\C(=O)NC/C=C\1 (configuration not stated) | 7.35 µM | > 100 µM and 81.9 µM | 13.2 µM | 30.7 µM and 31.8 µM | 18.6 µM | 48.2 µM and 36.6 µM | 5.89 µM | 25.1 µM and 41.2 µM | 14.2 µM | 44.4 µM and 37.7 µM | 13.6 µM | 37.6 µM and 93.6 µM | 31.6 µM | 71.8 µM and 75.6 µM | 22.3 µM | > 100 µM |  | > 100 µM | 18.1 µM | 40.3 µM and > 100 µM |
| OCc1ncc(-c2ccccc2)s1 | > 100 µM | > 100 µM | > 100 µM | > 100 µM | > 100 µM | > 100 µM | > 100 µM | > 100 µM | > 100 µM | > 100 µM | > 100 µM | > 100 µM | > 100 µM | > 100 µM | > 100 µM | > 100 µM | > 100 µM | > 100 µM | > 100 µM | > 100 µM |
| NC(=S)N/N=C/c1ccc(OC(=O)COc2ccccc2)cn1 | 1.58 µM | > 100 µM | 39 µM | > 100 µM | 9.39 µM | > 100 µM | 2.76 µM | > 100 µM | 4.49 µM | > 100 µM | 2.17 µM | > 100 µM | 49.7 µM | > 100 µM | 20.7 µM | > 100 µM | 40.9 µM | > 100 µM | 28.5 µM | > 100 µM |
| CC(=O)OC1CC2(O)C(CCC3(C)C(c4ccc(=O)oc4)CCC32O)C2(C)CCC(OC3OC(CO)C(O)C(O)C3O)C=C12 (configuration not stated) | < 0.01 µM | 0.115 µM | 0.045 µM | 0.381 µM | 0.0318 µM | 0.272 µM | 0.0183 µM | 0.167 µM | 0.0114 µM | 0.0539 µM | 0.0282 µM | 0.0949 µM | 0.044 µM | 0.168 µM | 0.0302 µM | 0.168 µM | 0.0447 µM | 0.717 µM | 0.0461 µM | 0.165 µM |
| COc1cc2oc(-c3cccc(C(=O)Nc4ccc(C)cc4)c3)cc(=O)c2c(OC)c1OC | 4.38 µM | > 100 µM | 2.55 µM | > 100 µM | 2.99 µM | > 100 µM | 2.53 µM | > 100 µM | 4.43 µM | 51.4 µM | 5.39 µM | > 100 µM | 2.17 µM | > 100 µM | 1.63 µM | 3.56 µM | 3.13 µM | 68.4 µM | 6.49 µM | > 100 µM |
| C/C(=C1/N=C(c2ccccc2)OC1=O)c1ccccc1 |  | > 100 µM |  | > 100 µM |  | > 100 µM |  | > 100 µM |  | > 100 µM |  | > 100 µM |  | > 100 µM |  | > 100 µM |  | > 100 µM |  | > 100 µM |
| CNC(C)[C@H]1CCC2C3CCC4C[C@@H](N(C)C(=O)c5ccccc5)CC[C@]4(C)C3CC[C@@]21C (some centres not stated) | 0.763 µM | 3.4 µM | 0.291 µM | 1.23 µM | 1.96 µM | 7.73 µM | 0.94 µM | 3.35 µM | 0.737 µM | 4.96 µM | 1.22 µM | 3.99 µM | 2.4 µM | 14.8 µM | 1.25 µM | 3.36 µM | 2.06 µM | 5.29 µM | 2.88 µM | 8.36 µM |
| Nc1cc(N)cc(Cc2ccccc2)c1 |  | > 100 µM |  | > 100 µM |  | > 100 µM |  | > 100 µM |  | > 100 µM |  | > 100 µM |  | > 100 µM |  | > 100 µM |  | > 100 µM |  | > 100 µM |
